In patent US12186377B2, “Modulation of oxidative stress and amino acid metabolism for the treatment or prevention of diseases and disorders” (NEW YORK UNIVERSITY, priority 2019, dated 2025):
“Also recorded” adds a separate entry of the source.

Assays:
[1] = tested on: wildtype vs Keap1 mutant Kras^G12D/+;p53^−/− lung adenocarcinoma cells; conditions: previously shown (Romero 2017; Sayin 2017); cited from earlier work
[2] = tested on: wildtype vs Keap1 mutant Kras^G12D/+;p53^−/− lung adenocarcinoma cells; experiment: Cell viability assay (cell titer glo); assay type: cell-based, mouse
Method: For cell viability assays cells were plated in a white, opaque 96-well plate with clear bottom at a density of 1000 cells/well in RPMI or RPMI with modified amino acid content. After attachment, CB-839 (Selleck) or L-Asparaginase (AbCam) were added at the indicated concentrations. After 3 days, cell viability in the presence of all compounds was assessed by cell titer glo (Promega).

[3] = tested on: Keap1 mutant subcutaneous tumors; experiment: Subcutaneous tumor growth, Keap1 mutant tumors; assay type: in vivo, C57B6 mice
Method: (§1) 5×10^5 cells were implanted subcutaneously into C57B6 mice. Tumor volume was measured by caliper and volume was calculated (Length×Width^2×0.5). After tumor establishment phase (tumor volume ˜50 mm^3), animals were randomized and assigned to a treatment group. Animals either received an amino acid control diet, diet lacking both serine and glycine, or a diet lacking asparagine (Envigo and TestDiet), 200 mg/kg CB-839 or vehicle (Calithera) twice daily administered through oral gavage as previously described (Davidson et al., 2016, Cell Metab 23, 517-528), 60 U of L-Asparaginase (Abcam) or vehicle once daily administered through intraperitoneal injection as before (Knott et al., 2018, Nature 554, 378-381) or some treatment combination as indicated.

[4] = tested on: wildtype subcutaneous tumors; experiment: Subcutaneous tumor growth, wildtype tumors; assay type: in vivo, C57B6 mice
Method: as §1

[5] = tested on: wildtype vs Keap1 mutant cells; experiment: GC/MS analysis of polar metabolites and stable isotope tracing in cells; assay type: cell-based, mouse; conditions: serine depleted conditions; 250 nM CB-839 or 6 mM glutamate, FIG. 7E
Method: For analysis of cells, 1×10^5 cells were seeded in 1 mL of RPMI-1640 in 12 well plates. […] Media was then replaced with fresh RPMI lacking serine or asparagine where indicated and supplement with 10% FBS. For tracing experiments media contained 11 mM [U^13C]-D-glucose, 2 mM [U^13C]-L-glutamine, 2 mM [α^15N]-L-glutamine, or 285 μM [U^13C]-L-serine (Cambridge Isotope Laboratory). Cells were treated with 250 nM CB-839 and cultured for 1-3 hours. Cells were washed 2× in ice cold saline and then collected by scraping in 250 μL of 80% (v/v) of ice cold methanol containing 1.4 μg/mL norvaline (Sigma Aldrich). Samples were vortexed for 10 min at 4° C. and then centrifuged at max speed for 5 minutes. Supernatant was transferred to fresh tubes and then dried in a speed vac. For analysis of mouse plasma, whole blood was collected at the time of sacrifice by a retro-orbital bleed with heparin coated capillary tubes (Fisher) into EDTA containing microcentrifuge tubes. Whole blood was centrifuged for 5 minutes at 1600 g. Cleared plasma was transferred to fresh tubes and 4 μL of plasma was then aliquoted and used for analysis. 80% (v/v) methanol containing 1.4 μg/mL norvaline was added to plasma and samples were then dried in a speed vac. […] After derivatization, samples were analyzed by GC-MS using an HP-5MS column (Agilent Technologies) in an Agilent Intuvo gas chromatograph coupled to an Agilent 5997B mass spectrometer. […]
The MS system operated under electron impact ionization at 70 eV and the MS source and quadrupole were held at 230° C. and 150° C. respectively the detector was used in scanning mode, and the scanned ion range was 10-650 m/z. Mass isotopomer distributions were determined by integrating the appropriate ion fragments for each metabolite (Lewis et al., 2014, Molecular cell 55, 253-263) using MATLAB (Mathworks) and an algorithm adapted from Fernandez and colleagues (Fernandez et al., 1996, Journal of mass spectrometry: JMS 31, 255-262) that corrects for natural abundance.

KPKJ wt and KPKJ V cells = experiment: Cell ROS level, DCFCA assay (FACS); assay type: cell-based, mouse; conditions: positive control
Method: TET+ stands for 3 days treatment of 1 μg/ml doxycycline for inducing shRNA expression. G6PD knockdown induces more ROS in Keap1 wildtype cells. Keap1 mutants show lower cell ROS. ROS level was measured by DCFCA assay. G6PD KO induces accumulation of ROS in Keap1 wildtype cells. Measured by FACS (DCFCA assay.) TET treatment 4 day before measuring. H2O2 positive control is about 200-fold increase.

[6] = tested on: murine Kras^G12D/+;p53^−/− pancreatic ductal adenocarcinoma cell line; experiment: Proliferation / viability of pancreatic cancer cell line; assay type: cell-based, mouse; conditions: pre-treated with 1 μM KI696; 0.036 U/mL L-asparaginase 3 days, FIG. 5C, 5D
Method: (§2) RPMI was prepared from a powder mix without amino acids (US Biological) according to manufacturer's instructions. All other amino acids besides those indicated were added to the RPMI mixture in the same concentrations present in RPMI-1640 formulation (Cellgro, Corning). Proliferation experiments were carried out for 5 days post drug treatment and collected by staining. Cells were stained with a 0.5% crystal violet (Fisher) solution in 20% methanol. Plates were then washed, dried, and crystal violet was eluted in 400 μL of 10% acetic acid.

[7] = Davies et al., 2016; cited from earlier work
[8] = tested on: LKR (Kras^G12D/+;p53^+/+) cell lines; experiment: Cell proliferation assay in media lacking serine or asparagine, LKR lines; assay type: cell-based, mouse; conditions: pre-treated with KI696 (11 μM printed elsewhere in the source), FIG. 5B
Method: as §2, with “For cell proliferation assays conducted under different drug or media conditions as indicated, cells growing in DMEM were trypsinized, counted and plated into 12 well plate dishes (BD/Falcon) in 1 mL of RPMI media. […] For deprivation experiments, cells were washed with PBS and media was replaced with 1 mL of complete RPMI or RPMI lacking indicated amino acid and supplemented with 10% dialyzed FBS and cells were re-treated with indicated drugs. RPMI was” for “RPMI was”

[9] = tested on: cell lines with different genetic status of Keap1; experiment: Relative viability in response to succinylacetone; assay type: cell-based; conditions: dominant negative Keap1 alleles vs Keap1 mutant cells, FIG. 35B
Description: FIG. 35A depicts a western blot validation of various Keap1 cDNA constructs including WT and multiple mutants found in LUAD. FIG. 35B depicts the relative viability of cell lines with different genetic status of Keap1 in response to different concentrations of succinylacetone, an inhibitor of Alas1.

[10] = GC/MS plasma amino acid levels in tumor-bearing mice; assay type: in vivo; conditions: L-asparaginase vs asparagine deficient diet, FIG. 11A
Method: For analysis of cells, 1×10^5 cells were seeded in 1 mL of RPMI-1640 in 12 well plates. […] Media was then replaced with fresh RPMI lacking serine or asparagine where indicated and supplement with 10% FBS. For tracing experiments media contained 11 mM [U^13C]-D-glucose, 2 mM [U^13C]-L-glutamine, 2 mM [α^15N]-L-glutamine, or 285 μM [U^13C]-L-serine (Cambridge Isotope Laboratory). Cells were treated with 250 nM CB-839 and cultured for 1-3 hours. Cells were washed 2× in ice cold saline and then collected by scraping in 250 μL of 80% (v/v) of ice cold methanol containing 1.4 μg/mL norvaline (Sigma Aldrich). Samples were vortexed for 10 min at 4° C. and then centrifuged at max speed for 5 minutes. Supernatant was transferred to fresh tubes and then dried in a speed vac. For analysis of mouse plasma, whole blood was collected at the time of sacrifice by a retro-orbital bleed with heparin coated capillary tubes (Fisher) into EDTA containing microcentrifuge tubes. Whole blood was centrifuged for 5 minutes at 1600 g. Cleared plasma was transferred to fresh tubes and 4 μL of plasma was then aliquoted and used for analysis. […] After derivatization, samples were analyzed by GC-MS using an HP-5MS column (Agilent Technologies) in an Agilent Intuvo gas chromatograph coupled to an Agilent 5997B mass spectrometer. […]

[11] = 60 U once daily intraperitoneal, FIG. 9B

For `O=C(Cc1cccc(OC(F)(F)F)c1)Nc1ccc(CCCCc2nnc(NC(=O)Cc3ccccn3)s2)nn1` [CB-839], the “sensitivity of Keap1 mutant cells to CB-839” value [1] is given as “highly sensitive”, the “effect of very low doses of CB-839 alone on cell growth” value ([2]; CB-839 alone) is given as “do not affect cell growth” and the “sensitivity to very low doses of CB-839 with L-asparaginase” value ([2]; Keap1 mutant cells, 0.1 U/mL L-asparaginase, FIG. 6I) is given as “increased sensitivity”. For the same compound, the “sensitivity to very low doses of CB-839 in reduced serine” value ([2]; Keap1 mutant cells, serine at 10% of normal concentration, FIG. 6J) was “increased sensitivity”, the “growth of Keap1 mutant tumors, CB-839 alone” value ([3]; 200 mg/kg twice daily oral gavage, FIG. 9E) was “sensitive” and the “growth of Keap1 mutant tumors, CB-839 with −SG diet” value ([3]; compared to either monotherapy, FIG. 9E) was “further reduced Keap1 mutant tumor growth”. For the same compound, the “growth of wildtype tumors, CB-839 alone” value ([4]; 200 mg/kg twice daily oral gavage, FIG. 9F) was “no effect on wildtype tumor growth”, the “growth of wildtype tumors, CB-839 with −SG diet” value ([4]; diet lacking serine and glycine, FIG. 9F) was “strong synergistic effect and significantly reduced wildtype tumor growth; also recorded: strongly sensitizes Keap1 wildtype tumors to dietary restriction of serine and glycine” and the “serine and glycine synthesis from [U^13C]-D glucose” value [5] was “decrease in both serine and glycine synthesis”.
For `OO` [H2O2], the “cell ROS level increase” value (KPKJ wt and KPKJ V cells) was “about 200 fold”.
In the case of `COc1cc([C@@H](CC(=O)O)c2ccc(C)c(CN3C[C@@H](C)Oc4ccccc4S3(=O)=O)c2)cc2nnn(C)c12` [KI696], the “growth upon serine deprivation or L-asparaginase treatment after Nrf2 activation” value [6] is given as “robust growth suppression”, the pharmacokinetics [7] is given as “prevent its efficient use in vivo” and the “proliferation in media lacking serine or asparagine, p53 wildtype LKR lines” value [8] is given as “growth suppression”.
With `CC(=O)CC(=O)CCC(=O)O` [succinylacetone, 4,6-Dioxoheptanoic acid] the “relative viability in response to succinylacetone” value [9] was “further sensitize Keap1 mutant cells to heme synthesis inhibition”.
With L-asparaginase the “relative viability on L-asparaginase treatment” value ([2]; Keap1 mutant vs wildtype cells, RPMI, 3 days, FIG. 1D) was “increased sensitivity”, the “growth of Keap1 mutant tumors, L-asparaginase” value [3, 11] was “blunted growth” and the “growth of Keap1 mutant tumors, L-asparaginase alone or with asparagine free diet” value ([3]; FIG. 9D) was “strongly blunts the growth”. The “growth of wildtype tumors, L-asparaginase” value [4, 11] was “not wildtype tumors” and the “plasma levels of asparagine” value [10] was “more effective at reducing plasma levels of asparagine than the asparagine diet”.
